What was measured:
HDAC-1 = biological target: T1, HDAC-1 (Homo sapiens, UniProt Q13547); experiment: HDAC inhibition assay (purified GST-HDAC protein); assay type: biochemical
T1 construct: made in house; host or cells: Sf9 or Sf21 insect cells (baculovirus, donor vector pFB-GSTX3)
Description: The baculovirus donor vector pFB-GSTX3 was used to generate a recombinant baculovirus that can express the HDAC polypeptide. Transfer vectors containing the HDAC coding region were transfected into the DH10Bac cell line (GIBCO) and plated on selective agar plates. Colonies without insertion of the fusion sequence into the viral genome (carried by the bacteria) were blue. Single, white colonies were picked and viral DNAs (bacmid) were isolated from the bacteria by standard plasmid purification procedures. Sf9 cells or Sf21 (American Type Culture Collection) cells were then transfected in […] flasks with the viral DNA using Cellfectin reagent.
Virus-containing media was collected from the transfected cell culture and used for infection to increase its titer. Virus-containing media obtained after two rounds of infection was used for large-scale protein expression. For large-scale protein expression 100 cm^2 round tissue culture plates were seeded with 5×10^7 cells/plate and infected with 1 mL of virus-containing media (at an approximately MOI of 5). After 3 days, the cells were scraped off the plate and centrifuged at 500 rpm for 5 minutes. Cell pellets from 10-20, 100 cm^2 plates, were re-suspended in 50 mL of ice-cold lysis buffer (25 mM tris-HCl, pH 7.5, 2 mM EDTA, 1% NP-40, 1 mM DTT, 1 mM P MSF). The cells were stirred on ice for 15 minutes and then centrifuged at 5,000 rpms for 20 minutes.
The centrifuged cell lysate was loaded onto a 2 mL glutathione-sepharose column (Pharmacia) and was washed thrice with 10 mL of 25 mM tris-HCl, pH 7.5, 2 mM EDTA, 1 mM DTT, 200 mM NaCl. The GST-tagged proteins were then eluted by 10 applications (1 mL each) of 25 mM tris-HCl, pH 7.5, 10 mM reduced-glutathione, 100 mM NaCl, 1 mM DTT, 10% glycerol and stored at −70° C.
HDAC assays with purified GST-HDAC protein were carried out in a final volume of 30 μL containing 15 ng of GST-HDAC protein, 20 mM tris-HCl, pH 7.5, 1 mM MnCl2, 10 mM MgCl2, 1 mM DTT, 3 μg/mL poly(Glu,Tyr) 4:1, 1% DMSO, 2.0 μM ATP (γ-[^33P]-ATP 0.1 μCi). The activity was assayed in the presence or absence of inhibitors. The assay was carried out in 96-well plates at ambient temperature for 15 minutes under conditions described below and terminated by the addition of 20 μL of 125 mM EDTA. Subsequently, 40 μL of the reaction mixture were transferred onto EMMOBILON-PVDF membrane (Millipore) previously soaked for 5 minutes with methanol, rinsed with water, then soaked for 5 minutes with 0.5% H3PO4 and mounted on vacuum manifold with disconnected vacuum source. After spotting all samples, a vacuum was connected and each well rinsed with 200 μL 0.5% H3PO4. Membranes were removed and washed four times on a shaker with 1.0% H3PO4, once with ethanol. Membranes were counted after drying at ambient temperature, mounting in Packard TopCount 96-well frame, and addition of 10 μL/well of MICROSCINT™ (Packard). IC50 values were calculated by linear regression analysis of the percentage inhibition of each compound in duplicate, at 4 concentrations (usually 0.01, 0.1, 1 and 10 μM).
• Input: 3×4 μL stopped assay on IMMOBILON membrane, not washed • Background (3 wells): assay with H2O instead of enzyme • Positive control (4 wells): 3% DMSO instead of compound • Bath control (1 well): no reaction mix
IC50 values were calculated by logarithmic regression analysis of the percentage inhibition of each compound at 4 concentrations (usually 3- or 10-fold dilution series starting at 10 μM). In each experiment, the actual inhibition by reference compound was used for normalization of IC50 values to the basis of an average value of the reference inhibitor: Normalized IC50=measured IC50 average ref IC50/measured ref IC50
Example: Reference inhibitor in experiment 0.4 μM, average 0.3 μM, Test compound in experiment 1.0 μM, normalization: 0.3/0.4=0.75 μM
For example, known HDAC inhibitors or a synthetic derivative thereof may be used as reference compounds.

HCT116 = HCT116 IC50; assay type: cell-based; settings: Homo sapiens, HCT-116

T1 sequence (Q13547 whole entry, species assumed): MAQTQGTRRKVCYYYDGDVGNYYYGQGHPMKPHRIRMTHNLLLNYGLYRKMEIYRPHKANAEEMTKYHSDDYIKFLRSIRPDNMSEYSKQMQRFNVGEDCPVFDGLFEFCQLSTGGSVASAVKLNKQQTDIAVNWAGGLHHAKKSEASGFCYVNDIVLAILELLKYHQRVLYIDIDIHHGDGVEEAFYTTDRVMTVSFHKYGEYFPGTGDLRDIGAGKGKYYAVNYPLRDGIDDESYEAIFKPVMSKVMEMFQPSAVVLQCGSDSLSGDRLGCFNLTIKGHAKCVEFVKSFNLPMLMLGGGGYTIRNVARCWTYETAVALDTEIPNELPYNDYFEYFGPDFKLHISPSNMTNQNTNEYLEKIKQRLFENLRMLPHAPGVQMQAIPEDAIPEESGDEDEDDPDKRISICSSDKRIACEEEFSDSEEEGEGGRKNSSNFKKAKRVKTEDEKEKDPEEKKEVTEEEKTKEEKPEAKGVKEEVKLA

Row | Structure (SMILES) | IC50 (HDAC-1) [nM] | IC50 (HCT116) [nM]
1 | O=C(/C=C/c1ccc([C@@H]2CCCN2CCn2cc(Br)cn2)cc1)NO [Compound 65, (E)-3-(4-{(S)-1-[2-(4-Bromo-pyrazol-1-yl)-ethyl]-pyrrolidin-2-yl}-phenyl)-N-hydroxy-acrylamide] | 35 | 180
2 | O=C(/C=C/c1ccc(C2CCCN2CC(O)c2ccccc2)cc1)NO (stereo not drawn) [Compound 28, (E)-N-Hydroxy-3-{4-[1-(2-hydroxy-2-phenyl-ethyl)-pyrrolidin-2-yl]-phenyl}-acrylamide] | 25 | 85
3 | O=C(/C=C/c1ccc([C@@H]2CCCN2CCc2cnn3ccccc23)c(F)c1)NO [Compound 91, (E)-3-{3-Fluoro-4-[(S)-1-(2-pyrazolo[1,5-a]pyridin-3-yl-ethyl)-pyrrolidin-2-yl]-phenyl}-N-hydroxy-acrylamide] | 4 | 2
4 | C[Si](C)(C)Cn1cc(CCN2CCC[C@H]2c2ccc(/C=C/C(=O)NO)cc2)nn1 [Compound 77, (E)-N-Hydroxy-3-(4-{(S)-1-[2-(1-trimethylsilanylmethyl-1H-[1,2,3]triazol-4-yl)-ethyl]-pyrrolidin-2-yl}-phenyl)-acrylamide] | 25 | 110
5 | Cc1nc2ccccn2c1CCN1CCC[C@H]1c1ccc(/C=C/C(=O)NO)cc1 [Compound 54, (E)-N-Hydroxy-3-(4-{(S)-1-[2-(2-methyl-imidazo[1,2-a]pyridin-3-yl)-ethyl]-pyrrolidin-2-yl}-phenyl)-acrylamide] | 3 | 4
6 | O=C(/C=C/c1ccc(C2CCCN2CCc2c[nH]c3ccccc23)cc1)NO (stereo not drawn) [Compound 3, (E)-N-Hydroxy-3-(4-{1-[2-(1H-indol-3-yl)-ethyl]-pyrrolidin-2-yl}-phenyl)-acrylamide] | 1 | 1.2
7 | O=C(/C=C/c1ccc(C2CCCN2CCCc2c[nH]c3ccccc23)cc1)NO (stereo not drawn) [Compound 2, (E)-N-Hydroxy-3-(4-{1-[3-(1H-indol-3-yl)-propyl]-pyrrolidin-2-yl}-phenyl)-acrylamide] | 10 | 50
8 | CC(C)(C)c1[nH]c2cc(NS(C)(=O)=O)ccc2c1CCN1CCCC1c1ccc(/C=C/C(=O)NO)cc1 (stereo not drawn) [Compound 10, (E)-3-(4-{1-[2-(2-tert-Butyl-6-methanesulfonylamino-1H-indol-3-yl)-ethyl]-pyrrolidin-2-yl}-phenyl)-N-hydroxy-acrylamide] | 3 | 2
9 | O=C(/C=C/c1ccc(C2CCCN2CCc2cnc3ccccn23)cc1)NO (stereo not drawn) [Compound 53, (E)-N-Hydroxy-3-{4-[1-(2-imidazo[1,2-a]pyridin-3-yl-ethyl)-pyrrolidin-2-yl]-phenyl}-acrylamide] | 0.9 | 1
10 | O=C(CCc1ccc([C@H]2CCCN2CCc2cnn3ccccc23)cc1)NO [Compound 121, N-Hydroxy-3-{4-[(R)-1-(2-pyrazolo[1,5-a]pyridin-3-yl-ethyl)-pyrrolidin-2-yl]-phenyl}-propionamide] | 31 | 180
11 | CC(C)n1nnnc1CCN1CCC[C@H]1c1ccc(CCC(=O)NO)cc1 [Compound 115, N-Hydroxy-3-(4-{(S)-1-[2-(1-isopropyl-1H-tetrazol-5-yl)-ethyl]-pyrrolidin-2-yl}-phenyl)-propionamide] | 25 | 32
12 | CN1CCN(CCc2cnn3ccccc23)C(c2ccc(/C=C/C(=O)NO)cc2)C1 (stereo not drawn) [Compound 90, (E)-N-Hydroxy-3-{4-[4-methyl-1-(2-pyrazolo[1,5-a]pyridin-3-yl-ethyl)-piperazin-2-yl]-phenyl}-acrylamide] | 8 | 34
13 | Cc1[nH]c2ccccc2c1CCN1CCCC1c1ccc(/C=C/C(=O)NO)cc1 (stereo not drawn) [Compound 1, (E)-N-Hydroxy-3-(4-{1-[2-(2-methyl-1H-indol-3-yl)-ethyl]-pyrrolidin-2-yl}-phenyl)-acrylamide] | 3 | 1
14 | O=C(/C=C/c1ccc([C@@H]2CCCCN2CCc2cnn3ccccc23)cc1)NO [Compound 85, (E)-N-Hydroxy-3-{4-[(S)-1-(2-pyrazolo[1,5-a]pyridin-3-yl-ethyl)-piperidin-2-yl]-phenyl}-acrylamide] | 4 | 9
15 | Cc1cc2ccccc2n1CCN1CCCC1c1ccc(/C=C/C(=O)NO)cc1 (stereo not drawn) [Compound 4, (E)-N-Hydroxy-3-(4-{1-[2-(2-methyl-indol-1-yl)-ethyl]-pyrrolidin-2-yl}-phenyl)-acrylamide] | 10 | 10
16 | CC(C)(O)c1nn2ccccc2c1CCN1CCC[C@@H]1c1ccc(CCC(=O)NO)cc1 [Compound 120, N-Hydroxy-3-[4-((R)-1-{2-[2-(1-hydroxy-1-methyl-ethyl)-pyrazolo[1,5-a]pyridin-3-yl]-ethyl}-pyrrolidin-2-yl)-phenyl]-propionamide] | 75 | 510
17 | O=C(/C=C/c1ccc([C@@H]2CCCN2CCc2c(-c3cccnc3)nn3ccccc23)cc1)NO [Compound 50, (E)-N-Hydroxy-3-(4-{(S)-1-[2-(2-pyridin-3-yl-pyrazolo[1,5-a]pyridin-3-yl)-ethyl]-pyrrolidin-2-yl}-phenyl)-acrylamide] | 1 | 0.4

Results, then the compound that gave them:

Row | IC50 (HDAC-1) [nM] | IC50 (HCT116) [nM] | Structure (SMILES)
18 | 17 | 39 | Cc1nn(CCN2CCC[C@H]2c2ccc(/C=C/C(=O)NO)cc2)c(C)c1C [Compound 67, (E)-N-Hydroxy-3-(4-{1-[2-(3,4,5-trimethyl-pyrazol-1-yl)-ethyl]-pyrrolidin-2-yl}-phenyl)-acrylamide]
19 | 2 | 1.1 | Cc1nn(-c2ccccc2)c(C)c1CCN1CCC[C@H]1c1ccc(/C=C/C(=O)NO)cc1 [Compound 55, (E)-3-(4-{(S)-1-[2-(3,5-Dimethyl-1-phenyl-1H-pyrazol-4-yl)-ethyl]-pyrrolidin-2-yl}-phenyl)-N-hydroxy-acrylamide]
20 | 30 | 96 | Cc1nn(CCN2CCC[C@H]2c2ccc(/C=C/C(=O)NO)cc2)cc1Br [Compound 70, (E)-3-(4-{(S)-1-[2-(4-Bromo-3-methyl-pyrazol-1-yl)-ethyl]-pyrrolidin-2-yl}-phenyl)-N-hydroxy-acrylamide]
21 | 0.8 | 1.4 | CCc1n[nH]c(CC)c1CCN1CCC[C@H]1c1ccc(/C=C/C(=O)NO)cc1 [Compound 99, (E)-3-(4-{(S)-1-[2-(3,5-Diethyl-1H-pyrazol-4-yl)-ethyl]-pyrrolidin-2-yl}-phenyl)-N-hydroxy-acrylamide]
22 | 25 | 32 | CC(C)n1nnnc1CCN1CCC[C@H]1c1ccc(/C=C/C(=O)NO)cc1 [Compound 102, (E)-N-Hydroxy-3-(4-{(S)-1-[2-(1-isopropyl-1H-tetrazol-5-yl)-ethyl]-pyrrolidin-2-yl}-phenyl)-acrylamide]
23 | 1.8 | 4 | Cc1nn(C)c(C)c1CCN1CCC[C@H]1c1ccc(/C=C/C(=O)NO)cc1 [Compound 60, (E)-N-Hydroxy-3-(4-{(S)-1-[2-(1,3,5-trimethyl-1H-pyrazol-4-yl)-ethyl]-pyrrolidin-2-yl}-phenyl)-acrylamide]
24 | 7 | 29 | O=C(/C=C/c1ccc(C2CCCN2CCc2ccc(Cl)cc2Cl)cc1)NO (stereo not drawn) [Compound 26, (E)-3-(4-{1-[2-(2,4-Dichloro-phenyl)-ethyl]-pyrrolidin-2-yl}-phenyl)-N-hydroxy-acrylamide]

— patent US8349883B2, “Hydroxamate-based inhibitors of deacetylases B” (Novartis AG, priority 2008, dated 2013)
